Assay results: patent US11959909B2, “Basal ganglia-on-chip for screening therapeutic agents for brain and nervous system diseases” (priority 2018, dated 2024)
Entries after “also recorded” stand apart in the source; their conditions may differ.

Tested on: dopaminergic neurons
Assay: Drug screening on Parkinson's disease-like basal ganglia-on-a-chip model (6-OHDA induced)
Format: cell-based
Settings: 50 μM L-dopa after Parkinson's disease-like model established with 100 μM 6-OHDA
Source text: In order to fabricate a basal ganglia-on-a-chip, SH-SY5Y (ATCC CRL-2266) was used as dopaminergic neurons, and F3-NG1 (provided from professor Hong-Joon Lee at Chung-Ang University) were allowed to differentiate and then used as GABAergic neurons and glutamatergic neurons. Parkinson's disease is caused by the gradual loss of dopaminergic neurons distributed in the substantia nigra. 6-Hydroxydopamine (6-OHDA) causes oxidative stress to induce mitochondrial migration of c-Jun N-terminal kinase (JNK), and the activated JNK after mitochondrial migration causes mitochondrial dysfunction, contributing to apoptosis of dopaminergic neurons, occurring in Parkinson's disease. Based on this, a Parkinson's disease model was developed using 100 μM 6-OHDA.

N[C@@H](Cc1ccc(O)c(O)c1)C(=O)O [L-dopa, L-3,4-dihydroxyphenylalanine]
proliferation of dopaminergic neurons: increase in the proliferation of dopaminergic neurons; also recorded: proliferation of dopaminergic neurons was confirmed
